Measured values taken from patent US20230287044A1, “NOVEL ANTIBACTERIAL PEPTIDE AND USE THEREOF” (priority 2020, published 2023).
Values after ≈ are worked out from the molar mass of the structure shown. Square brackets hold non-standard residues; d marks the D form. Ends that are not written are not given here. Peptide text beside a SMILES is read from it. * marks the point of attachment. Decanoyl = CCCCCCCCCC(=O)*

Experiments:
[1] = tested on: MRPA (P. aeruginosa) CCARM 2180; type: cell-based, Pseudomonas aeruginosa; conditions: CCARM 2180, 18 h
Experimental: (§1) The minimum growth inhibitory concentrations of the antibacterial peptides of the present invention weremeasured, and the results are shown in Table 3 below.
(§2) Specifically, the strains were grown in CAMHB until the midlog phase, and then diluted with PBS buffer to 1× 10^6 cfu/ml to prepare the bacterial solution, and the antibacterial peptide prepared in Example 1above was diluted with CAMHB to 80 µM, 40 µM, 20 µM, 10 µM, 5 µM, 2.5 µM, 1.25 µM and 0.63 µM, and then the bacterial solution was treated with the same volume.
(§3) The results are the average value of three independent experiments.

[2] = tested on: MRAB (A. baumannii) ATCC BAA 1605; type: cell-based, Acinetobacter baumannii; conditions: ATCC BAA 1605, 18 h
Experimental: as §1, §2, §3

[3] = tested on: MRSA (S. aureus) KCCM 40510; type: cell-based, Staphylococcus aureus; conditions: KCCM 40510, 18 h
Experimental: as §1, §2, §3

[4] = tested on: VRE (E. faecalis) ATCC 51575; type: cell-based, Enterococcus faecalis; conditions: ATCC 51575, 18 h
Experimental: as §1, §2, §3

Molecule | MIC MRPA (P. aeruginosa) CCARM 2180 [1] | MIC MRAB (A. baumannii) ATCC BAA 1605 [2] | MIC MRSA (S. aureus) KCCM 40510 [3] | MIC VRE (E. faecalis) ATCC 51575 [4]
CC[C@@H](C)[C@@H](NC(=O)[C@@H](Cc1c[nH]c2ccccc12)NC(=O)[C@@H](CCCNC(=N)N)NC(=O)[C@H](N)CCCNC(=N)N)C(=O)N[C@H](Cc1c[nH]c2ccccc12)C(=O)N[C@@H](C(=O)N[C@H](CC(C)C)C(=O)N[C@H](Cc1c[nH]c2ccccc12)C(=O)N[C@H](CCCNC(=N)N)C(N)=O)C(C)C [KSH54, rrwiwvlwr] (H-[dR][dR][dW][dI][dW][dV][dL][dW][dR]-NH2; N-terminus assumed) | 2.5 µM (≈ 3.42 µg/mL) | 0.63 µM (≈ 0.863 µg/mL) | 0.63 µM (≈ 0.863 µg/mL) | 0.63 µM (≈ 0.863 µg/mL)
CC(C)[C@@H](NC(=O)[C@@H](Cc1c[nH]c2ccccc12)NC(=O)[C@@H](CCCNC(=N)N)NC(=O)[C@H](N)CCCNC(=N)N)C(=O)N[C@H](Cc1c[nH]c2ccccc12)C(=O)N[C@@H](C(=O)N[C@@H](C(=O)N[C@H](Cc1c[nH]c2ccccc12)C(=O)N[C@H](CCCCN)C(N)=O)C(C)C)C(C)C [KSH56, rrwvwvvwk] (H-[dR][dR][dW][dV][dW][dV][dV][dW][dK]-NH2; N-terminus assumed) | 5 µM (≈ 6.57 µg/mL) | 1.25 µM (≈ 1.64 µg/mL) | 1.25 µM (≈ 1.64 µg/mL) | 1.25 µM (≈ 1.64 µg/mL)
CC[C@@H](C)[C@@H](NC(=O)[C@@H](Cc1c[nH]c2ccccc12)NC(=O)[C@@H](CCCNC(=N)N)NC(=O)[C@@H](CCCNC(=N)N)NC(=O)[C@H](N)CCCNC(=N)N)C(=O)N[C@H](Cc1c[nH]c2ccccc12)C(=O)N[C@@H](C(=O)N[C@H](CC(C)C)C(=O)N[C@H](Cc1c[nH]c2ccccc12)C(=O)N[C@H](CCCCN)C(=O)N[C@H](CC(N)=O)C(N)=O)C(C)C [KSH68, rrrwiwvlwkn] (H-[dR][dR][dR][dW][dI][dW][dV][dL][dW][dK][dN]-NH2; N-terminus assumed) | 2.5 µM (≈ 4.03 µg/mL) | 0.63 µM (≈ 1.02 µg/mL) | 1.25 µM (≈ 2.01 µg/mL) | 1.25 µM (≈ 2.01 µg/mL)
CC(C)[C@@H](NC(=O)[C@@H](Cc1c[nH]c2ccccc12)NC(=O)[C@@H](CCCNC(=N)N)NC(=O)[C@@H](CCCNC(=N)N)NC(=O)[C@H](N)CCCNC(=N)N)C(=O)N[C@H](Cc1c[nH]c2ccccc12)C(=O)N[C@@H](C(=O)N[C@@H](C(=O)N[C@H](Cc1c[nH]c2ccccc12)C(=O)N[C@H](Cc1c[nH]c2ccccc12)C(N)=O)C(C)C)C(C)C [KSH81, rrrwvwvvww] (H-[dR][dR][dR][dW][dV][dW][dV][dV][dW][dW]-NH2; N-terminus assumed) | 5 µM (≈ 7.64 µg/mL) | 10 µM (≈ 15.3 µg/mL) | 1.25 µM (≈ 1.91 µg/mL) | 1.25 µM (≈ 1.91 µg/mL)
CC[C@@H](C)[C@@H](NC(=O)[C@@H](Cc1c[nH]c2ccccc12)NC(=O)[C@@H](C)NC(=O)[C@@H](C)NC(=O)[C@H](N)Cc1c[nH]c2ccccc12)C(=O)NCC(=O)N[C@H](CC(C)C)C(=O)N[C@H](CCCNC(=N)N)C(=O)N[C@H](CCCNC(=N)N)C(N)=O [KSH78, waawiglrr] (H-[dW][dA][dA][dW][dI]G[dL][dR][dR]-NH2; N-terminus assumed) | >10 µM | 5 µM (≈ 5.64 µg/mL) | >10 µM | >10 µM
CC[C@@H](C)[C@@H](NC(=O)[C@@H](Cc1c[nH]c2ccccc12)NC(=O)[C@@H](CCCNC(=N)N)NC(=O)[C@@H](CCCNC(=N)N)NC(=O)[C@H](N)CCCNC(=N)N)C(=O)N[C@H](Cc1c[nH]c2ccccc12)C(=O)N[C@H](Cc1c[nH]c2ccccc12)C(=O)N[C@H](CC(C)C)C(=O)N[C@H](Cc1c[nH]c2ccccc12)C(=O)N[C@H](CCCCN)C(N)=O [KSH50, rrrwiwwlwk] (H-[dR][dR][dR][dW][dI][dW][dW][dL][dW][dK]-NH2; N-terminus assumed) | 2.5 µM (≈ 3.96 µg/mL) | 0.63 µM (≈ 0.999 µg/mL) | 1.25 µM (≈ 1.98 µg/mL) | 1.25 µM (≈ 1.98 µg/mL)
WLLWVYVRKKR-NH2 [XSH2] | 20 µM | 1.25 µM | 25 µM | 5 µM
CC(C)[C@@H](NC(=O)[C@@H](Cc1c[nH]c2ccccc12)NC(=O)[C@@H](CCCNC(=N)N)NC(=O)[C@@H](CCCNC(=N)N)NC(=O)[C@H](N)CCCNC(=N)N)C(=O)N[C@H](Cc1c[nH]c2ccccc12)C(=O)N[C@@H](C(=O)N[C@@H](C(=O)N[C@@H](C(=O)N[C@H](Cc1c[nH]c2ccccc12)C(N)=O)C(C)C)C(C)C)C(C)C [KSH82, rrrwvwvvvw] (H-[dR][dR][dR][dW][dV][dW][dV][dV][dV][dW]-NH2; N-terminus assumed) | 10 µM (≈ 14.4 µg/mL) | 10 µM (≈ 14.4 µg/mL) | 1.25 µM (≈ 1.8 µg/mL) | 1.25 µM (≈ 1.8 µg/mL)
WLVYVWLRKKR-NH2 [LSH2] | 20 µM | 1.25 µM | 5 µM | 5 µM
WLLWVLWRKKR-NH2 [LSH3] | 20 µM | 1.25 µM | 2.5 µM | 2.5 µM
CC(C)[C@@H](NC(=O)[C@H](N)Cc1c[nH]c2ccccc12)C(=O)N[C@@H](C(=O)N[C@H](Cc1c[nH]c2ccccc12)C(=O)N[C@@H](C(=O)N[C@H](Cc1c[nH]c2ccccc12)C(=O)N[C@H](CCCCN)C(=O)N[C@H](CCCCN)C(=O)N[C@H](CCCCN)C(N)=O)C(C)C)C(C)C [KSH66, wvvwvwkkk] (H-[dW][dV][dV][dW][dV][dW][dK][dK][dK]-NH2; N-terminus assumed) | >10 µM | 1.25 µM (≈ 1.57 µg/mL) | 1.25 µM (≈ 1.57 µg/mL) | 0.63 µM (≈ 0.792 µg/mL)
CC[C@@H](C)[C@@H](NC(=O)[C@@H](Cc1c[nH]c2ccccc12)NC(=O)[C@@H](CCCCN)NC(=O)[C@@H](CCCNC(=N)N)NC(=O)[C@H](N)CCCNC(=N)N)C(=O)N[C@H](Cc1c[nH]c2ccccc12)C(=O)N[C@H](Cc1c[nH]c2ccccc12)C(=O)N[C@H](CC(C)C)C(=O)N[C@H](Cc1c[nH]c2ccccc12)C(=O)N[C@H](CCCCN)C(=O)N[C@H](CCCCN)C(=O)N[C@H](CCCCN)C(N)=O [KSH52, rrkwiwwlwkkk] (H-[dR][dR][dK][dW][dI][dW][dW][dL][dW][dK][dK][dK]-NH2; N-terminus assumed) | 5 µM (≈ 9.07 µg/mL) | 1.25 µM (≈ 2.27 µg/mL) | 5 µM (≈ 9.07 µg/mL) | 5 µM (≈ 9.07 µg/mL)
CC(C)[C@@H](NC(=O)[C@@H](Cc1c[nH]c2ccccc12)NC(=O)[C@@H](CCCNC(=N)N)NC(=O)[C@@H](CCCNC(=N)N)NC(=O)[C@H](N)CCCNC(=N)N)C(=O)N[C@H](Cc1c[nH]c2ccccc12)C(=O)N[C@H](Cc1c[nH]c2ccccc12)C(=O)N[C@@H](C(=O)N[C@@H](C(=O)N[C@H](Cc1c[nH]c2ccccc12)C(N)=O)C(C)C)C(C)C [KSH80, rrrwvwwvvw] (H-[dR][dR][dR][dW][dV][dW][dW][dV][dV][dW]-NH2; N-terminus assumed) | 2.5 µM (≈ 3.82 µg/mL) | 10 µM (≈ 15.3 µg/mL) | 1.25 µM (≈ 1.91 µg/mL) | 1.25 µM (≈ 1.91 µg/mL)
CCCCCCCCCC(=O)NCCCC[C@@H](NC(=O)[C@@H](CCCCN)NC(=O)[C@@H](CCCNC(=N)N)NC(=O)[C@@H](CC(C)C)NC(=O)[C@@H](C)NC(=O)[C@H](NC(=O)[C@@H](Cc1c[nH]c2ccccc12)NC(=O)[C@@H](CC(C)C)NC(=O)[C@@H](CC(C)C)NC(=O)[C@H](N)Cc1c[nH]c2ccccc12)[C@H](C)CC)C(N)=O [KSH7, wllwialrkk] (H-[dW][dL][dL][dW][dI][dA][dL][dR][dK][dK](Decanoyl)-NH2; N-terminus assumed) | >40 µM | >40 µM | 10 µM (≈ 14.8 µg/mL) | 10 µM (≈ 14.8 µg/mL)
CC[C@@H](C)[C@@H](NC(=O)[C@@H](Cc1c[nH]c2ccccc12)NC(=O)[C@@H](C)NC(=O)[C@@H](C)NC(=O)[C@H](N)Cc1c[nH]c2ccccc12)C(=O)NCC(=O)N[C@H](CC(C)C)C(=O)N[C@H](CCCNC(=N)N)C(=O)N[C@H](CCCNC(=N)N)C(=O)N[C@H](CCCCN)C(=O)N[C@H](CCCCN)C(N)=O [KSH76, waawiglrrkk] (H-[dW][dA][dA][dW][dI]G[dL][dR][dR][dK][dK]-NH2; N-terminus assumed) | >10 µM | 1.25~2.5 µM | >10 µM | >10 µM
CC(C)[C@@H](NC(=O)[C@@H](Cc1c[nH]c2ccccc12)NC(=O)CNC(=O)[C@@H](CCCNC(=N)N)NC(=O)[C@@H](CCCNC(=N)N)NC(=O)[C@H](N)CCCNC(=N)N)C(=O)N[C@H](Cc1c[nH]c2ccccc12)C(=O)N[C@@H](C(=O)N[C@@H](C(=O)N[C@H](Cc1c[nH]c2ccccc12)C(=O)N[C@H](CCCCN)C(N)=O)C(C)C)C(C)C [KSH90, rrrgwvwvvwk] (H-[dR][dR][dR]G[dW][dV][dW][dV][dV][dW][dK]-NH2; N-terminus assumed) | 5 µM (≈ 7.63 µg/mL) | 5 µM (≈ 7.63 µg/mL) | 1.25 µM (≈ 1.91 µg/mL) | 1.25 µM (≈ 1.91 µg/mL)
